Assay results reported in paper PMC9814781, “Structure-based design of a dual-warhead covalent inhibitor of FGFR4” (Communications Chemistry, 2022).
Like-named read-outs stand apart in the source and are kept apart here.

How the values were obtained:
[1] = In vitro plasma stability study; assay type: in vitro ADME; details: for half-life at 2 µg/mL: 37°C, read-out: in vitro t1/2 (converted); for R squared / Slope: linear regression 0–10 h
Description: The incubation was terminated by the addition of 300 µL of acetonitrile containing 50 ng/mL roblitinib as internal standard. After vortex and centrifugation, the supernatant was analyzed using ultraperformance liquid chromatography-tandem mass spectrometry.

[2] = biological target: T1, DYRK4 (Homo sapiens, UniProt Q9NR20); experiment: Kinase selectivity profiling; assay type: biochemical; details: DYRK4, 1000 nM
T1 construct: purchased ICE Bioscience

[3] = biological target: TSSK1 (Homo sapiens, UniProt Q9BXA7); experiment: Kinase selectivity profiling
Sequence of TSSK1 (Q9BXA7 whole entry): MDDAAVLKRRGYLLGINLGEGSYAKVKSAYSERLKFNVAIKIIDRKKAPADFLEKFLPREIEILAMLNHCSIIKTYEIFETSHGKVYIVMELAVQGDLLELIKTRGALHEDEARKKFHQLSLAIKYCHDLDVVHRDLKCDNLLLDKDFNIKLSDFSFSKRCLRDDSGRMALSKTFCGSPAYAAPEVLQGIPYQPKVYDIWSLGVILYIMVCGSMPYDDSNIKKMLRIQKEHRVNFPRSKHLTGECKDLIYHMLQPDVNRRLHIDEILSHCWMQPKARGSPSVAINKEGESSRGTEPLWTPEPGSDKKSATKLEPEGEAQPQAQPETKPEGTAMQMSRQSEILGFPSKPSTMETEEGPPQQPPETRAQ

[4] = biological target: TRKA (Homo sapiens, UniProt P04629); experiment: Kinase selectivity profiling
[5] = biological target: MINK (Homo sapiens, UniProt Q8N4C8); experiment: Kinase selectivity profiling
[6] = biological target: Erk5 (Homo sapiens, UniProt Q13164); experiment: Kinase selectivity profiling
[7] = biological target: ZAP70 (Homo sapiens, UniProt P43403); experiment: Kinase selectivity profiling
[8] = biological target: SRM (Homo sapiens, UniProt Q9H3Y6); experiment: Kinase selectivity profiling
[9] = biological target: KHS (Homo sapiens, UniProt Q9Y4K4); experiment: Kinase selectivity profiling
Sequence of KHS (Q9Y4K4 whole entry): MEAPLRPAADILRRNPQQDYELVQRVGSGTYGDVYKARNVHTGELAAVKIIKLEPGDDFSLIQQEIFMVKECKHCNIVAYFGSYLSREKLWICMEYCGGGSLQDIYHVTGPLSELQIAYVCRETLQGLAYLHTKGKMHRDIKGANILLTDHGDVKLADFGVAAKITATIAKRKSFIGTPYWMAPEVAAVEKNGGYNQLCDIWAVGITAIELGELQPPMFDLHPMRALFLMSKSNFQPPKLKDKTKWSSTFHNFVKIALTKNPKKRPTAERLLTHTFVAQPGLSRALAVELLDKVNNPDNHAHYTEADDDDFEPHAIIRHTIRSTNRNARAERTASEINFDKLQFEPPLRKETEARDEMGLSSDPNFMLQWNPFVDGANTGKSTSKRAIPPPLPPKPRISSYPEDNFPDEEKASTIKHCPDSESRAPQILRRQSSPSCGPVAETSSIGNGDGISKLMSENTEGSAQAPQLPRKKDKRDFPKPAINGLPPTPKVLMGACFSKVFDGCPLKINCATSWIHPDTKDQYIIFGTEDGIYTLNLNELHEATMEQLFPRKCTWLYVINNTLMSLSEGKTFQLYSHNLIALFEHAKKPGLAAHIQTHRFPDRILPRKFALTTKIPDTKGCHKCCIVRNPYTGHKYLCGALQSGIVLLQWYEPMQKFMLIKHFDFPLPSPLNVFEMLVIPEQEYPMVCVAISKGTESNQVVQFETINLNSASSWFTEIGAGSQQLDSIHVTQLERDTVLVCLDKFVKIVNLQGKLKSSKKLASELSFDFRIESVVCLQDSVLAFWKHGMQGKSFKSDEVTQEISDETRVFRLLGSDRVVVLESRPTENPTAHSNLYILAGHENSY

[10] = biological target: AKT2 (Homo sapiens, UniProt P31751); experiment: Kinase selectivity profiling
Sequence of AKT2 (P31751 whole entry): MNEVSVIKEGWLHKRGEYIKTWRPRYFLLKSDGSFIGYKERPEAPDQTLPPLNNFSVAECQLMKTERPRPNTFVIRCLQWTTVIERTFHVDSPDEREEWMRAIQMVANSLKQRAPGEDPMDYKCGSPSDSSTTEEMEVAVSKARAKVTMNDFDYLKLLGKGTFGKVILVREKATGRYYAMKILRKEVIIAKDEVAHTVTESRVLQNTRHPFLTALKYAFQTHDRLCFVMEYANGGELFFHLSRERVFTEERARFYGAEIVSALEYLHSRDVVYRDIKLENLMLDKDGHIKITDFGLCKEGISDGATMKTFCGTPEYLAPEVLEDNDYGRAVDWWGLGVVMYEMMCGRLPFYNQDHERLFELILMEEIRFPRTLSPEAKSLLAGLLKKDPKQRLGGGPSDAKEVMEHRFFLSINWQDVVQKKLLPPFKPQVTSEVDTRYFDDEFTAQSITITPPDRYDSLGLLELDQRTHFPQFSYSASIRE

[11] = biological target: PAK1 (Homo sapiens, UniProt Q13153); experiment: Kinase selectivity profiling
Sequence of PAK1 (Q13153 whole entry): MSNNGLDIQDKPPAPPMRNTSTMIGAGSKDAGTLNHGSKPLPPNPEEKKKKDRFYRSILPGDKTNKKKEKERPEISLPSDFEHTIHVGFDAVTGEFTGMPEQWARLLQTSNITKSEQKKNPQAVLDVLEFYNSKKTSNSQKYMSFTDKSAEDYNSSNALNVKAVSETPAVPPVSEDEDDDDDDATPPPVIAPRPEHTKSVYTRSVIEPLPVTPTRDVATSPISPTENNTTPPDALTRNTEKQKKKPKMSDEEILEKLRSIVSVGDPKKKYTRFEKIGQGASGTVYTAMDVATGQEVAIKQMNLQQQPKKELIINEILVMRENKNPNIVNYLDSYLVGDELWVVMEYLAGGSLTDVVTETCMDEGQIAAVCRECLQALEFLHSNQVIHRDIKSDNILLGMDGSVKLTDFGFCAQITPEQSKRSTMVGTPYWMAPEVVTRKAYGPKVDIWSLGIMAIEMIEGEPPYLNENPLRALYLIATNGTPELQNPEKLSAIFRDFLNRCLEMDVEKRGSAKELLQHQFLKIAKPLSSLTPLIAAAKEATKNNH

[12] = biological target: DAPK1 (Homo sapiens, UniProt P53355); experiment: Kinase selectivity profiling
[13] = biological target: HIPK4 (Homo sapiens, UniProt Q8NE63); experiment: Kinase selectivity profiling
[14] = biological target: PYK2 (Homo sapiens, UniProt Q14289); experiment: Kinase selectivity profiling
[15] = biological target: JAK3 (Homo sapiens, UniProt P52333); experiment: Kinase selectivity profiling
[16] = biological target: CHK1(CHEK1) (Homo sapiens, UniProt O14757); experiment: Kinase selectivity profiling
Sequence of CHK1(CHEK1) (O14757 whole entry): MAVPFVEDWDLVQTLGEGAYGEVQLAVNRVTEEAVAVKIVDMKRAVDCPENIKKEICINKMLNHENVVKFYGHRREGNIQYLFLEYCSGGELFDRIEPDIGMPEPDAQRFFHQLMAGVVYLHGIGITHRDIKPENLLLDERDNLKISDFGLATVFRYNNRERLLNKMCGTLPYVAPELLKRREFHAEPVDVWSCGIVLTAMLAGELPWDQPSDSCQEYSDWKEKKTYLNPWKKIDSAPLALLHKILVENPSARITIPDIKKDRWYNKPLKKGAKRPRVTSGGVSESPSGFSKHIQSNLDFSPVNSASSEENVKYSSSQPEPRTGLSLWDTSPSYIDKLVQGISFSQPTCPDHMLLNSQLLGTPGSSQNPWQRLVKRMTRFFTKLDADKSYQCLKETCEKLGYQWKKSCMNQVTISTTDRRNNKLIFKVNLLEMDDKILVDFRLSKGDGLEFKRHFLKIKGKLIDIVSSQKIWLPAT

[17] = biological target: JNK2 (Homo sapiens, UniProt P45984); experiment: Kinase selectivity profiling
[18] = biological target: PIK3CB/PIK3R1 (Homo sapiens, UniProt P42338); experiment: Kinase selectivity profiling
[19] = biological target: ROS1 (Homo sapiens, UniProt P08922); experiment: Kinase selectivity profiling
[20] = biological target: BRAF (Homo sapiens, UniProt P15056); experiment: Kinase selectivity profiling
[21] = biological target: CDK1/CycA2 (Homo sapiens, UniProt P06493); experiment: Kinase selectivity profiling
[22] = biological target: ABL1 (Homo sapiens, UniProt P00519); experiment: Kinase selectivity profiling
[23] = biological target: EPHA3 (Homo sapiens, UniProt P29320); experiment: Kinase selectivity profiling
[24] = biological target: RSK1 (Homo sapiens, UniProt Q15418); experiment: Kinase selectivity profiling
Sequence of RSK1 (Q15418 whole entry): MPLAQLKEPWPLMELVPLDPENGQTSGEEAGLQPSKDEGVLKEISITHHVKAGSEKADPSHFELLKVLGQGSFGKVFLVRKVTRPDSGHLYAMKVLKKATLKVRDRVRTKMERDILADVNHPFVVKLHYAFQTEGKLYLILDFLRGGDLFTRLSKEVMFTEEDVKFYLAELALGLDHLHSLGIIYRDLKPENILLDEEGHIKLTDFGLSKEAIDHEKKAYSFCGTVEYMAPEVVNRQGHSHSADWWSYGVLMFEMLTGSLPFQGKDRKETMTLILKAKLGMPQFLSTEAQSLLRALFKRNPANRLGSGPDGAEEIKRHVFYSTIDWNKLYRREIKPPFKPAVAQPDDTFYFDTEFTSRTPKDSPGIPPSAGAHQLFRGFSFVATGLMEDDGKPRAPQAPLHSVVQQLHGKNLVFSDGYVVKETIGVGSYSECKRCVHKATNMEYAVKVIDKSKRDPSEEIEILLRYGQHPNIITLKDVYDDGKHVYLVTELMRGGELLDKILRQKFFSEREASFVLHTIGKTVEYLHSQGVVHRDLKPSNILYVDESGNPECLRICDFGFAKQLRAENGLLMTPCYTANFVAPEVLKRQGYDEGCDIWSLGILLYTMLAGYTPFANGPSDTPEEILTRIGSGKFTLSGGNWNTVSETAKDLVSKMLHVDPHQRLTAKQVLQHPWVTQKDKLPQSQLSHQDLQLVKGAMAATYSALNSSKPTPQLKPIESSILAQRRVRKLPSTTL

[25] = biological target: CHK2 (Homo sapiens, UniProt O96017); experiment: Kinase selectivity profiling
[26] = biological target: LCK (Homo sapiens, UniProt P06239); experiment: Kinase selectivity profiling
[27] = biological target: CDK18/CycY (Homo sapiens, UniProt Q07002); experiment: Kinase selectivity profiling
Sequence of CDK18/CycY (Q07002 whole entry): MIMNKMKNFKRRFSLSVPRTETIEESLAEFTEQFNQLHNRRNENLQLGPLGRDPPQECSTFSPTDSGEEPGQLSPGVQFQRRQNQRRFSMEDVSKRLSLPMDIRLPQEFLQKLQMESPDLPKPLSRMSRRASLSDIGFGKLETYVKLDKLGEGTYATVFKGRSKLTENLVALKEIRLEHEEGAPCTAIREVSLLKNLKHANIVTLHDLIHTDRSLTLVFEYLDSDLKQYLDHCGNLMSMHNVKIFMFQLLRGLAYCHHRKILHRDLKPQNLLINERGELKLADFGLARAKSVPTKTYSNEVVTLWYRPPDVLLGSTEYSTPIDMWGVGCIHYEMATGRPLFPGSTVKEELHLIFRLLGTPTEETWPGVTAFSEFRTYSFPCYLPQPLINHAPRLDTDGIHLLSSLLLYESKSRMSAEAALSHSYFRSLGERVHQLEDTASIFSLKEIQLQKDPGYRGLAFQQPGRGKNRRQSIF
Sequence of CDK18/CycY (Q8ND76 whole entry partner): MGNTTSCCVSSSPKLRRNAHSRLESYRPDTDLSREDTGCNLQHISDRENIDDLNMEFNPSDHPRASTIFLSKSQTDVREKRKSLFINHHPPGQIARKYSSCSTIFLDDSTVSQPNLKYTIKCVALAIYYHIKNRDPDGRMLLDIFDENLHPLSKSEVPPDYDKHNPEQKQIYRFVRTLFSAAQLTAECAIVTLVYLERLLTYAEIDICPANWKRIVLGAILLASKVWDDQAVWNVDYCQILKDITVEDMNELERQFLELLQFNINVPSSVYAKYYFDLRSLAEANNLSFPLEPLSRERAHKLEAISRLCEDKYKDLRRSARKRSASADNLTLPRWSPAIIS

[28] = biological target: KDR (VEGFR2) (Homo sapiens, UniProt P35968); experiment: Kinase selectivity profiling
[29] = biological target: EPHA4 (Homo sapiens, UniProt P54764); experiment: Kinase selectivity profiling
[30] = biological target: PDGFRβ (Homo sapiens, UniProt P09619); experiment: Kinase selectivity profiling
[31] = biological target: CDK1/CycE1 (Homo sapiens, UniProt P06493); experiment: Kinase selectivity profiling
[32] = biological target: YES (Homo sapiens, UniProt P07947); experiment: Kinase selectivity profiling
Sequence of YES (P07947 whole entry): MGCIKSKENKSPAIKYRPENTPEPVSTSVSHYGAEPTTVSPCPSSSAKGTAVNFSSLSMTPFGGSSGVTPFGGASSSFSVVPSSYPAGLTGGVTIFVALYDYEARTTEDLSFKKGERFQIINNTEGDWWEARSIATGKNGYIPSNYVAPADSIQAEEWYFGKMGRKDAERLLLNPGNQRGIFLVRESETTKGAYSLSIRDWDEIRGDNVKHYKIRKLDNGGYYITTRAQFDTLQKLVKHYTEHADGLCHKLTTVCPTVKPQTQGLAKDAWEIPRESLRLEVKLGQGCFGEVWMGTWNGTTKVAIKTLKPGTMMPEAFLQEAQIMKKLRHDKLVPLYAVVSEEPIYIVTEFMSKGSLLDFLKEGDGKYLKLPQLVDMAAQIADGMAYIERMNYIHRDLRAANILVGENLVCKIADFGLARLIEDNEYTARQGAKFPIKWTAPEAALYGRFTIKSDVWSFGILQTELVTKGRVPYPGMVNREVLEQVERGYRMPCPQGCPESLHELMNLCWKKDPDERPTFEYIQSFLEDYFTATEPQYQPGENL

[33] = biological target: CK1γ3 (Homo sapiens, UniProt Q9Y6M4); experiment: Kinase selectivity profiling
[34] = biological target: CDK16/CycY (Homo sapiens, UniProt Q00536); experiment: Kinase selectivity profiling
[35] = biological target: TGFβR2 (Homo sapiens, UniProt P37173); experiment: Kinase selectivity profiling
[36] = biological target: HCK (Homo sapiens, UniProt P08631); experiment: Kinase selectivity profiling
[37] = biological target: DYRK3 (Homo sapiens, UniProt O43781); experiment: Kinase selectivity profiling
[38] = biological target: TIE2 (Homo sapiens, UniProt Q02763); experiment: Kinase selectivity profiling
[39] = biological target: PLK2 (Homo sapiens, UniProt Q9NYY3); experiment: Kinase selectivity profiling

C=CC(=O)Nc1ccccc1Nc1ncc2c(n1)N(CCCN1CCN(C(=O)C=C)CC1)C(=O)N(c1cc(OC)cc(OC)c1)C2 [CXF-009]
half-life at 2 µg/mL ([1]; human plasma): 3.73 h | R squared ([1]; human plasma): 0.9969 | Slope ([1]; human plasma): −0.1859 | half-life at 2 µg/mL ([1]; rat plasma): 4.99 h | R squared ([1]; rat plasma): 0.9935 | Slope ([1]; rat plasma): −0.1388 | inhibition at 1 µM [2]: 1.84% | inhibition at 1 µM [3]: 30% | inhibition at 1 µM [4]: 26.2% | inhibition at 1 µM [5]: 16.6% | inhibition at 1 µM [6]: 14% | inhibition at 1 µM [7]: 11.8% | inhibition at 1 µM [8]: 5.29% | inhibition at 1 µM [9]: 4.11% | inhibition at 1 µM [10]: 3.35% | inhibition at 1 µM [11]: 3.22% | inhibition at 1 µM [12]: 2.52% | inhibition at 1 µM [13]: 2.32% | inhibition at 1 µM [14]: 2.11% | inhibition at 1 µM [15]: 1.94% | inhibition at 1 µM [16]: 1.53% | inhibition at 1 µM [17]: 0.4% | inhibition at 1 µM [18]: 0.17% | inhibition at 1 µM [19]: -0.51% | inhibition at 1 µM [20]: -0.93% | inhibition at 1 µM [21]: -1.02% | inhibition at 1 µM [22]: -1.44% | inhibition at 1 µM [23]: -1.81% | inhibition at 1 µM [24]: -2.52% | inhibition at 1 µM [25]: -3.02% | inhibition at 1 µM [26]: -3.46% | inhibition at 1 µM [27]: -3.74% | inhibition at 1 µM [28]: -5.37% | inhibition at 1 µM [29]: -6.83% | inhibition at 1 µM [30]: -6.88% | inhibition at 1 µM [31]: -7.18% | inhibition at 1 µM [32]: -7.61% | inhibition at 1 µM [33]: -7.86% | inhibition at 1 µM [34]: -7.9% | inhibition at 1 µM [35]: -10.4% | inhibition at 1 µM [36]: -11.6% | inhibition at 1 µM [37]: -12% | inhibition at 1 µM [38]: -12.8% | inhibition at 1 µM [39]: -19.5%
